Assay results published in the NIST ThermoML archive (doi:10.1021/je025582+).

Settings: Gas

FC(C(F)(F)F)C(F)(F)F [1,1,1,2,3,3,3-heptafluoropropane]
Settings	mass density [kg/m3]
318.15 K, 122.2 kPa	8.07
318.15 K, 167.7 kPa	11.21
318.15 K, 230.1 kPa	15.57
318.15 K, 312 kPa	21.61
318.15 K, 421 kPa	30.01
318.15 K, 561.3 kPa	41.67
318.15 K, 734.2 kPa	57.85
321.15 K, 123.2 kPa	8.06
321.15 K, 169.3 kPa	11.2
321.15 K, 232.2 kPa	15.54
321.15 K, 315.4 kPa	21.58
321.15 K, 425.5 kPa	29.97
321.15 K, 568 kPa	41.61
321.15 K, 744.1 kPa	57.77
324.15 K, 124.4 kPa	8.05
324.15 K, 170.9 kPa	11.18
324.15 K, 234.2 kPa	15.53
324.15 K, 318.6 kPa	21.56
324.15 K, 430.2 kPa	29.93
324.15 K, 574.9 kPa	41.56
324.15 K, 754 kPa	57.71
327.15 K, 125.7 kPa	8.04
327.15 K, 172.6 kPa	11.17
327.15 K, 236.2 kPa	15.51
327.15 K, 321.9 kPa	21.53
327.15 K, 434.8 kPa	29.9
327.15 K, 581.5 kPa	41.52
327.15 K, 763.9 kPa	57.65
327.15 K, 982.1 kPa	80.04
330.15 K, 126.8 kPa	8.04
330.15 K, 132 kPa	8.39
330.15 K, 174.3 kPa	11.16
330.15 K, 181.5 kPa	11.64
330.15 K, 238.5 kPa	15.5
330.15 K, 248.3 kPa	16.17
330.15 K, 325.2 kPa	21.51
330.15 K, 338.6 kPa	22.45
330.15 K, 439.5 kPa	29.87
330.15 K, 457.7 kPa	31.17
330.15 K, 588.3 kPa	41.48
330.15 K, 611.2 kPa	43.28
330.15 K, 774.3 kPa	57.59
330.15 K, 803.6 kPa	60.09
330.15 K, 998.1 kPa	79.97
333.15 K, 128 kPa	8.03
333.15 K, 175.9 kPa	11.15
333.15 K, 240.7 kPa	15.48
333.15 K, 328.6 kPa	21.5
333.15 K, 444.3 kPa	29.85
333.15 K, 595.3 kPa	41.45
333.15 K, 784.6 kPa	57.55
333.15 K, 1013.2 kPa	79.91
336.15 K, 129 kPa	8.03
336.15 K, 177.7 kPa	11.14
336.15 K, 243.4 kPa	15.47
336.15 K, 331.9 kPa	21.49
336.15 K, 449.1 kPa	29.83
336.15 K, 602.5 kPa	41.42
336.15 K, 795.1 kPa	57.52
336.15 K, 1029.1 kPa	79.86
339.15 K, 130.1 kPa	8.02
339.15 K, 179.3 kPa	11.14
339.15 K, 245.7 kPa	15.47
339.15 K, 334.9 kPa	21.48
339.15 K, 454.4 kPa	29.82
339.15 K, 609.6 kPa	41.4
339.15 K, 804.6 kPa	57.49
339.15 K, 1044.6 kPa	79.83
339.15 K, 1310.5 kPa	110.84
342.15 K, 131.3 kPa	8.02
342.15 K, 181.1 kPa	11.14
342.15 K, 248.2 kPa	15.46
342.15 K, 338.6 kPa	21.47
342.15 K, 459.3 kPa	29.81
342.15 K, 616.9 kPa	41.39
342.15 K, 815 kPa	57.47
342.15 K, 1059.6 kPa	79.8
342.15 K, 1333.9 kPa	110.8
345.15 K, 132.5 kPa	8.02
345.15 K, 182.4 kPa	11.13
345.15 K, 250.2 kPa	15.46
345.15 K, 341.9 kPa	21.47
345.15 K, 464 kPa	29.81
345.15 K, 624.2 kPa	41.39
345.15 K, 826.2 kPa	57.46
345.15 K, 1074.6 kPa	79.79
345.15 K, 1358 kPa	110.79
380.15 K, 269.4 kPa	14.93
380.15 K, 369.5 kPa	20.73
380.15 K, 503.4 kPa	28.78
380.15 K, 683 kPa	39.96
380.15 K, 918.3 kPa	55.48
380.15 K, 1215.9 kPa	77.04
380.15 K, 1582.9 kPa	106.97
380.15 K, 2004.6 kPa	148.52
380.15 K, 2446.1 kPa	206.22
380.15 K, 2832.9 kPa	286.34
